Assay results reported in patent publication US20240327427A1, “NEW COMPOUNDS FOR THE TREATMENT OF ALZHEIMER'S DISEASE” (Icahn School of Medicine at Mount Sinai, priority 2020, published 2024).
“Also recorded” adds a separate entry of the source.

Columns and labels:
Type in all cases: cell-based, human
[1] = test system: ATP6V1A; assay: ATP6V1A mRNA expression in drug-treated NPCs (LINCS profiles); settings: drug-treated vs DMSO-treated, LINCS data
From the text: Compounds were screened for drugs that can rescue the in vitro and in vivo phenotypes arising from ATP6V1A deficits. Using their drug repositioning tool, Ensemble of Multiple Drug Repositioning Approaches (EMUDRA) (Zhou et al., 2018b), the inventors matched the disease signature from the BM36-PHG region and the signatures of 3,629 drugs tested in the NPCs in the Library of Integrated Network-based Cellular Signatures (LINCS) project (FIG. 6A). The inventors further prioritized candidate drugs by their potential to increase the mRNA expression of ATP6V1A in the NPCs.
To identify existing drugs that can restore the molecular expression change in the LOAD brains, the inventors performed a drug repositioning analysis using EMUDRA, which provides a novel computational algorithm to match disease signatures and drug-induced signatures. The inventors downloaded drug-treated gene expression profiles (level 3 data of quantile-normalized and log 2 transformed expression levels from human iPSC-derived neural progenitor cells (NPCs) from the Library of Integrated Network-Based Cellular Signatures (LINCS) program. After removing probes sets mapping to multiple genes or without known gene annotation, the remaining data were adjusted for batch effects using linear regression. The mean expression level of multiple probe sets that match to the same gene was used as the expression level for that gene. For each drug, the applied drug signature was the transcriptome-wide expression difference between drug-treated and DMSO-treated gene expression profiles. The inventors matched each of the drug signatures to the LOAD signature using EMUDRA to find drugs that could reverse the LOAD signature. […] In total, 3,629 drug signatures were analyzed and ranked. The inventors further prioritized the top-ranked drugs that can increase ATP6V1A mRNA expression in the NPCs.

[2] = test system: ATP6V1A; assay: ATP6V1A mRNA (qRT-PCR) and protein (western blot) levels in hiPSC-derived NGN2 neurons (iNs); settings: for transcriptional and translational levels of ATP6V1A: D21 iNs, concentrations between 1 and 30 μM
Procedure: To verify this discovery, the inventors measured the transcriptional and translational levels of ATP6V1A in D21 iNs treated with the 3 HDAC inhibitors at a series of concentrations between 1 and 30 μM.
CRISPR inhibition (CRISPRi) was used to repress endogenous ATP6V1A in hiPSC-derived NGN2 neurons. […] Next, the inventors investigated whether LQ081-166 rescued the phenotypes of ATP6V1A deficit and reduced neuronal activity.
Quantitative reverse transcription PCR (qRT-PCR) was performed as previously described. Specifically, cell cultures were harvested with Trizol and total RNA extraction was carried out following the manufacturer's instructions. Quantitative transcript analysis was performed using a QuantStudio 7 Flex Real-Time PCR System with the Power SYBR Green RNA-to-Ct Real-Time qPCR Kit (all Thermo Fisher Scientific). Total RNA template (25 ng per reaction) was added to the PCR mix, including primers listed below. qPCR conditions were as follows; 48° C. for 30 min, 95° C. for 10 min followed by 40 cycles (95° C. for 15 s, 60° C. for 60 s). All qPCR data is collected from at least 3 independent biological replicates of one experiment. Data analyses were performed using GraphPad PRISM 6 software.
Cells were rinsed with ice-cold phosphate-buffered saline (PBS), pelleted, and lyzed in RIPA Lysis and Extraction Buffer (Thermo Fisher Scientific, #89900) containing Halt™ Protease and Phosphatase Inhibitor Cocktail (Thermo Fisher Scientific, #78440). Alternatively, MSBB BM36 brain samples were homogenized with similar methods. Samples were sonicated for 1 minute then centrifuged at 13,000× rpm for 10 min. The supernatant was collected, and total protein concentration was determined using Quick Start™ Bradford Protein Assay (Bio-Rad, 5000201) following the manufacturer's instructions.
Images were captured and quantified using the Odyssey® Imaging Systems (LI-COR. Inc.).
(§1) A stock solution of LQ081-166 (molecular weight: 452.63) at 3 mM is prepared in dimethyl sulfoxide (DMSO). Once prepared, aliquot the stock solution into 100 μL amounts and store at −80° C. Avoid repeated freeze-thaw cycles. The stock is diluted 1000× into neuronal medium to obtain 3 μM for assays. After 24-hour treatment, RNA was extracted from cells for quantitative PCR. In the MEA assay, LQ081-166 was added on neuronal differentiation day 14. Replace with medium containing drug or vehicle every 2-3 days until the final recording day.

[3] = test system: hiPSC-derived NGN2 neurons; assay: Multi-electrode array (MEA) neuronal activity
Procedure: To evaluate electrical activity of NGN2-neurons by MEA, density-matched isogenic NGN2-neuronal populations, co-cultured with pHAs, were prepared as described above. Specifically, at day 3, pHAs were split as 17,000 cells/well in a Matrigel-coated 48W MEA plate (Axion Biosystems, M768-tMEA-48W) and maintained as above. At day 7, NGN2-neurons were detached, spun down and seeded on the pHA culture. Outer space of each well in the plate was filled up with autoclaved/deionized water to minimize the evaporation of marginal wells (“edge effect”) during long-term culture. Half volume of neuronal medium (supplemented with 2% FBS) was replaced with fresh medium including 200 nM Ara-C from day 9 until the end of MEA recording. Electrical activity of neurons was recorded daily during day 14-24. On the recording day, the plate was loaded into the Axion Maestro MEA reader (Axion Biosystems). Recording was performed via AxiS 2.4 for 10 mins. Quantitative analysis of the recording was exported as a Microsoft excel sheet. Data were analyzed using GraphPad PRISM 6 software.
as §1

[4] = test system: ATP6V1A; assay: ATP6V1A gene expression-based compound screening (qRT-PCR) in hiPSC-derived NPCs; settings: for ATP6V1A mRNA level / gene expression: hiPSC-derived NPCs, qRT-PCR vs DMSO
From the text: Thirty nine new compounds were synthesized by chemical synthesis and evaluated for their capability to elevate the mRNA level of ATP6V1A and the neuronal activities in hiPSC-derived NPCs. […] These disclosures indicate that the chemical structure to the right in LQ081-166 has a structure-activity relationship necessary for ATP6V1A activation.
To identify useful drugs for targeting this novel therapeutic target, the inventors synthesized 39 new compounds by chemical synthesis and evaluated their capability of elevating the mRNA level of ATP6V1A and neuronal activity in hiPSC-derived NPCs.
To improve the potency and efficacy of the drugs, an additional 18 derivatives based on LQ081-166 were synthesized (FIG. 7B). […] The inventors determined that the thioester and benzyl group in LQ081-166 has a structure-activity relationship necessary for ATP6V1A activation.
FIG. 7. ATP6V1A gene expression-based compounds screening. (A) qRT-PCR analysis (N=3-12) to determine the relative changes in ATP6V1A gene expression after exposure to 40 chemical compounds. ****, p<0.0001 (one-way ANOVA). DMSO serves as vehicle control. (B) Molecular modification of LQ081-166 and chemical structure of LQ108-32. (C) qRT-PCR analysis of relative ATP6V1A gene expression after exposure to LQ081-166 derivatives. Grey scale bars in the graph are associated with the categories of molecular modification. Note that LQ108-51/52/53 is a small pool of three LQ081-166 derivatives. (D) Effects of LQ081-166 at 0.3, 1, 3, and 10 μM on ATP6V1A mRNA level after 24-h exposure. *, p<0.05; **, p<0.01 (one-way ANOVA).
Quantitative reverse transcription PCR (qRT-PCR) was performed as previously described. […] Quantitative transcript analysis was performed using a QuantStudio 7 Flex Real-Time PCR System with the Power SYBR Green RNA-to-Ct Real-Time qPCR Kit (all Thermo Fisher Scientific). […]
A stock solution of LQ081-166 (molecular weight: 452.63) at 3 mM is prepared in dimethyl sulfoxide (DMSO). […] After 24-hour treatment, RNA was extracted from cells for quantitative PCR. […]

SMILES	ATP6V1A (log2FC) [1]	other results
CC[C@H]1CN2CCc3cc(OC)c(OC)cc3C2C[C@@H]1CC1NCCc2cc(OC)c(OC)cc21 (stereo partly shown) [BRD-A25687296]	2.37 log2FC	–
C[C@@H]1O[C@@H](O[C@@H]2C=C3CCC4C(CC[C@]5(C)[C@@H](c6ccc(=O)oc6)CC[C@]45O)[C@@]3(C)CC2)[C@H](O)[C@H](O)[C@H]1O (stereo partly shown) [BRD-A34806832]	1.49 log2FC	–
CC1CC(C)C(=O)C(C(O)CC2CC(=O)NC(=O)C2)C1 (stereo not shown) [BRD-A62184259]	1.46 log2FC	–
C[C@@H]1C[C@@H]([C@H](O)CC2CC(=O)NC(=O)C2)C(=O)[C@@H](C)C1 [BRD-K36055864]	2.00 log2FC	–
C[C@@H]1CN([C@@H](C)CO)C(=O)c2cccc(NC(=O)c3ccc(-c4nccs4)cc3)c2O[C@@H]1CN(C)Cc1ccc(C(=O)Nc2ccccc2N)cc1 [BRD-K56196992]	1.47 log2FC	–
Nc1ccccc1NC(=O)c1ccc(CNC(=O)OCc2cccnc2)cc1 [BRD-K77908580]	1.54 log2FC	–
CC[C@H]1CN2CCc3cc(OC)c(OC)cc3[C@@H]2C[C@@H]1C[C@H]1NCCc2cc(O)c(OC)cc21 [BRD-K80348542]	1.09 log2FC	–
C[C@]12CC[C@H]3[C@@H](CC[C@]4(O)C[C@@H](O)CC[C@]34C=O)[C@@]1(O)CC[C@@H]2C1=CC(=O)OC1 [BRD-K84595254]	2.98 log2FC	–
O=C(CCCCCCSC(=O)CCc1ccccc1)Nc1nc(-c2ccccc2)cs1 [LQ081-166, S-(7-oxo-7-((4-phenylthiazol-2-yl)amino)heptyl) 3-phenylpropanethioate]	–	ATP6V1A mRNA level ([2]; ATP6V1A KD hiPSC-derived NGN2 neurons): restores ATP6V1A mRNA level; ATP6V1A mRNA level ([2]; NGN2 neurons, 3 μM, 24 hours): significantly increased; restoration of neuronal activity (MEA) ([3]; ATP6V1A KD neurons, regardless of presence/absence of Aβ exposure, 3 μM): partially restoring neuronal activity; neuronal activity (MEA) ([3]; NGN2 neurons, 3 μM LQ081-166): potent activator of neuronal activity; dose dependence of effect on ATP6V1A mRNA level ([4]; 0.3, 1, 3 and 10 μM, 24-h exposure): dose-dependent effect; ATP6V1A mRNA level / gene expression [4]: most significantly increased
O=C(CCCCCCC(=O)SCCc1ccccc1)Nc1nc(-c2ccccc2)cs1 [LQ108-32, S-phenethyl 8-oxo-8-((4-phenylthiazol-2-yl)amino)octanethioate]	–	ATP6V1A mRNA level / gene expression ([4]; listed as LQ081-32): did not affect; also recorded: inability to affect
Nc1ccccc1NC(=O)c1ccc(CNC(=O)OCc2cccnc2)cc1 [MS-275]	–	transcriptional and translational levels of ATP6V1A [2]: ineffective
O=C(CCCCCCC(=O)Nc1ccccc1)NO [SAHA]	0.77 log2FC	transcriptional and translational levels of ATP6V1A [2]: ineffective
CCC(=O)CCCCC[C@@H]1NC(=O)[C@H]2CCCCN2C(=O)[C@H]([C@@H](C)CC)NC(=O)[C@H](Cc2cn(OC)c3ccccc23)NC1=O [apicidin]	0.99 log2FC	–
CN(C)c1ccc(C(=O)NCCCCCCC(=O)NO)cc1 [m-344]	0.84 log2FC	–
O=C(CCCCCN1C(=O)c2cccc3cccc(c23)C1=O)NO [scriptaid]	0.78 log2FC	–
CC(/C=C/C(=O)NO)=C\[C@@H](C)C(=O)c1ccc(N(C)C)cc1 [trichostatin a]	0.61 log2FC	–
